In article PMC7697615, “Selective Interactions of O-Methylated Flavonoid Natural Products with Human Monoamine Oxidase-A and -B” (Molecules, 2020):
“Also recorded” adds a separate entry of the source. Read-outs that look alike come from different tables or passages of the source.

Experiments:
[1] = target: T1, MAO-A (Homo sapiens, UniProt P21397); assay: MAO inhibition assay (kynuramine oxidative deamination), MAO-A; type: biochemical; settings: for SI b (Selectivity index: MAO-A IC50/MAO-B IC50): ratio of IC50 values
T1 construct: purchased BD Biosciences (Bedford, MA, USA)
T1 sequence (P21397 1-527): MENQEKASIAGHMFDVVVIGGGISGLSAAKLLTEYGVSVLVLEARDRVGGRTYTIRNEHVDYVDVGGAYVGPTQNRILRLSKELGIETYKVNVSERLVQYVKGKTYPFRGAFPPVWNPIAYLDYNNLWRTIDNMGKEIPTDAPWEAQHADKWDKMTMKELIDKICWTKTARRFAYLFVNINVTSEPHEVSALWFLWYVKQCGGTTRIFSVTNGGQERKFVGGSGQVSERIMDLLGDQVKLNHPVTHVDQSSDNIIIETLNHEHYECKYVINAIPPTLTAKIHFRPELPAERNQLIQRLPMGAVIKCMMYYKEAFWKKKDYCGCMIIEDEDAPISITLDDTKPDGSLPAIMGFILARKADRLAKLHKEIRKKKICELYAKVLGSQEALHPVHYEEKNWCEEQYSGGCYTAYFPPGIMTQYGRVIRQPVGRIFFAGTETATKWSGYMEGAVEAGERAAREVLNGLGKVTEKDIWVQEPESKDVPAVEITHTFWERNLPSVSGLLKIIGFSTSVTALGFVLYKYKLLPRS
Procedure: In this study, we have investigated the effect of the isolated constituents (1–6) on human recombinant MAO-A and -B. The kynuramine oxidation deamination assay was performed in 96-well plates as previously reported, with modification. A fixed concentration of kynuramine substrate and varying concentrations of test compounds or inhibitor were used to determine the IC50 values. Kynuramine concentrations for MAO-A and -B were 80 μM and 50 μM, respectively. […] The enzymatic reactions were initiated by the addition of MAO-A (5 μg/mL) or -B (12.5 μg/mL), and incubated for 20 min at 37 °C. The enzyme reactions were terminated by the addition of 78 μL of 2N NaOH. The formation of 4-hydroxyquinoline (the enzyme reaction end product) was recorded fluorometrically on a SpectraMax M5 fluorescence plate reader (Molecular Devices, Sunnyvale, CA, USA) with an excitation (320 nm) and emission (380 nm) wavelength, using the Soft MaxPro-6 program. The inhibition effects of enzyme activity were calculated as the percent of product formation compared to the corresponding controls (enzyme–substrate reaction) without inhibitors. The assay controls, to define the interference of the test compounds with the fluorescence measurements, were set up simultaneously, and the enzyme or the substrate was added after stopping the reaction.
(§1) The dose–response enzyme-inhibition curves were generated using Microsoft® Excel and the IC50 values were computed with XLfit®.

[2] = target: T2, MAO-B (Homo sapiens, UniProt P27338); assay: MAO inhibition assay (kynuramine oxidative deamination), MAO-B; type: biochemical; set-up: purchased BD Biosciences (Bedford, MA, USA); settings: kynuramine 50 μM; mean ± S.D. of at least triplicate observations
T2 sequence (P27338 1-520): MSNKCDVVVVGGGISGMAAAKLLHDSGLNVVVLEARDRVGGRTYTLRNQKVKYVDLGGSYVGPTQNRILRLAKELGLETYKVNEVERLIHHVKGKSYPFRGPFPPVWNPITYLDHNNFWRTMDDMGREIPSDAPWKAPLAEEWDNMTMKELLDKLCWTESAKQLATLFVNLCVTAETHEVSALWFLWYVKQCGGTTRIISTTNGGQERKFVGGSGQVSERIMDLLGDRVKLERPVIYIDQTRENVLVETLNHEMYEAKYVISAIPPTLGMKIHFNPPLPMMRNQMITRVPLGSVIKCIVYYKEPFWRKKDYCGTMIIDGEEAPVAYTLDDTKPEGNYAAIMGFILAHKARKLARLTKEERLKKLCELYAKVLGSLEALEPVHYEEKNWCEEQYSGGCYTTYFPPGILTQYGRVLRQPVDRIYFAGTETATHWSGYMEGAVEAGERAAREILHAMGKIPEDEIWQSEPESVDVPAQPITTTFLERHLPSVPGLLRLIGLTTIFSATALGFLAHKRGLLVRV
Procedure: In this study, we have investigated the effect of the isolated constituents (1–6) on human recombinant MAO-A and -B. The kynuramine oxidation deamination assay was performed in 96-well plates as previously reported, with modification. A fixed concentration of kynuramine substrate and varying concentrations of test compounds or inhibitor were used to determine the IC50 values. Kynuramine concentrations for MAO-A and -B were 80 μM and 50 μM, respectively. […] The enzyme reactions were terminated by the addition of 78 μL of 2N NaOH. The formation of 4-hydroxyquinoline (the enzyme reaction end product) was recorded fluorometrically on a SpectraMax M5 fluorescence plate reader (Molecular Devices, Sunnyvale, CA, USA) with an excitation (320 nm) and emission (380 nm) wavelength, using the Soft MaxPro-6 program. The inhibition effects of enzyme activity were calculated as the percent of product formation compared to the corresponding controls (enzyme–substrate reaction) without inhibitors. The assay controls, to define the interference of the test compounds with the fluorescence measurements, were set up simultaneously, and the enzyme or the substrate was added after stopping the reaction.
as §1

[3] = target: T2, MAO-B; assay: Enzyme-inhibitor complex equilibrium dialysis assay, MAO-B; type: binding; set-up: purchased BD Biosciences (Bedford, MA, USA); settings: for MAO-B enzyme activity recovered after dialysis / inhibition at 50 µM: 50.0 μM; for inhibition at 50 µM: read-out: Inhibition of MAO-B activity on incubation (before dialysis); for Reversibility of binding with MAO-B: 20 min incubation, dialyzed overnight, 3, 4, 6 at 50.0 μM, deprenyl 0.500 μM
Procedure: (§2) Enzyme-inhibitors mostly produce inhibition of the target enzyme through the formation of an enzyme–inhibitor complex. The formation of the enzyme–inhibitor complex may be accelerated in the presence of a high concentration of the test inhibitor. The property of binding of test compounds to MAO-A or -B was determined by the formation of the enzyme–inhibitor complex by incubation of the enzyme with a high concentration of the test compound. This was followed by extensive equilibrium dialysis of the enzyme–inhibitor complex. Recovery of catalytic activity of MAO-A and -B was determined before and after the dialysis. […] After 20 min incubation at 37 °C, the reaction was stopped by chilling the tubes in an ice bath. […] All the samples with enzyme–inhibitor complex were individually dialyzed against potassium phosphate buffer (25 mM; pH 7.4) at 4 °C for 16–18 h (including three buffer changes). The control enzyme (without inhibitor) was also run through the same procedure and the activity of the enzyme was determined before and after the dialysis.

[4] = target: T2, MAO-B; assay: Time-dependent inhibition assay, MAO-B; type: biochemical; set-up: purchased BD Biosciences (Bedford, MA, USA); settings: pre-incubation 0–15 min; 3 3.0 μM, 4 1.0 μM, 6 2.0 μM
Procedure: To investigate if the binding of the inhibitor with MAO-A and -B followed time-dependent inhibition kinetics, the enzyme was pre-incubated with the inhibitor for different time periods (0–15 min). […] The controls without inhibitors were also run simultaneously. The activities of the MAO-A and -B enzymes were determined as described above and the percentage of enzyme activity remaining was plotted against the pre-incubation time to determine time-dependent inhibition.

[5] = target: T2, MAO-B; assay: Enzyme kinetics and mechanism study (Lineweaver-Burk), MAO-B; settings: for Type of Inhibition, Monoamine Oxidase-B: kinetics and dialysis
Procedure: (§3) Three sets of assays were completed at varying concentrations of the substrate for each experiment, one control without inhibitor and the others with two different concentrations of the inhibitor. The data were evaluated by double reciprocal Lineweaver-Burk plots for determination of the Ki (i.e., inhibition/binding affinity) values.
(§4) For determination of the binding affinity of the inhibitor (Ki) to MAO-A and -B, the enzyme assays were carried out at different concentrations of kynuramine substrate (1.90 μM to 500 μM) and varying concentrations of the inhibitors/compound. The flavonoids (1–6) were tested at 0.030–0.100 μM for MAO-A and 0.100–0.500 μM for -B. The controls without inhibitor were also run simultaneously. The results were analyzed by SigmaPlot version 10 using standard double reciprocal Lineweaver-Burk plots for computing Km and Vmax values, which were further analyzed to determine the Ki values [18, 36, 37].

[6] = target: T1, MAO-A; assay: Enzyme kinetics and mechanism study (Lineweaver-Burk), MAO-A; type: biochemical; settings: for Type of Inhibition, Monoamine Oxidase-A: kinetics and dialysis
Procedure: as §3, §4

[7] = target: T1, MAO-A; assay: Enzyme-inhibitor complex equilibrium dialysis assay, MAO-A; type: binding; settings: 20 min incubation, dialyzed overnight; 1 10.0 μM, 2 25.0 μM, 3 25.0 μM, 5 100.0 μM
Procedure: as §2

[8] = kynuramine 80 μM, mean ± S.D. of at least triplicate observations, read-out: MAO-A IC50
[9] = double reciprocal plots, mean ± SD of three observations, read-out: Ki, Monoamine Oxidase-A

Row | Structure (SMILES) | IC50 [1, 8] | SI b (Selectivity index: MAO-A IC50/MAO-B IC50) [1] | IC50 [2] | MAO-B enzyme activity recovered after dialysis [3] | inhibition at 50 µM [3] | Reversibility of binding with MAO-B [3] | Time dependence of MAO-B inhibition [4] | Ki [5] | Type of Inhibition, Monoamine Oxidase-B [5] | Ki [6, 9] | melting point | Selectivity for MAO-A vs. MAO-B [1] | Type of Inhibition, Monoamine Oxidase-A [6] | IC50 [1] | Ki [6] | Reversibility of binding with MAO-A [7]
1 | COc1ccc(-c2oc3cc(O)cc(O)c3c(=O)c2OC)cc1 [Compound 1, 3,4′-di-O-methylkaempferol] | 0.033 ± 0.042 µM | 0.0034 | 9.67 ± 2.31 µM |  |  |  |  |  |  | 0.0379 ± 0.0008 µM |  | > 292 fold | reversible-competitive; also recorded: Competitive/Reversible |  |  | 
2 | COc1cc(O)cc(O)c1C(=O)/C=C/c1ccccc1 [Compound 3, 2′,4′-dihydroxy-6′-methoxy-chalcone] |  | 0.432 | 2.7 ± 0.794 µM | 80% | > 60% | reversible; also recorded: reversibly | did not show time-dependent inhibition | 1.24 ± 0.6 µM | reversible and competitive |  |  | ~ 2 fold | reversible-competitive; also recorded: Competitive/Reversible | 1.17 ± 0.513 µM | 0.633 ± 0.107 µM | 
3 | COc1ccc(-c2oc3cc(O)cc(O)c3c(=O)c2O)cc1 [Compound 5, 4′-O-methylkaempferol] | 1.35 ± 0.198 µM |  | > 100 µM |  |  |  |  |  |  | 3.53 ± 0.265 µM |  |  | partially-reversible mixed-type |  |  | partial reversibility; also recorded: partially reversible

The next lines start with results.

Row | IC50 [1, 8] | SI b (Selectivity index: MAO-A IC50/MAO-B IC50) [1] | IC50 [2] | MAO-B enzyme activity recovered after dialysis [3] | inhibition at 50 µM [3] | Reversibility of binding with MAO-B [3] | Time dependence of MAO-B inhibition [4] | Ki [5] | Type of Inhibition, Monoamine Oxidase-B [5] | Ki [6, 9] | melting point | Structure (SMILES) | Selectivity for MAO-A vs. MAO-B [1] | Type of Inhibition, Monoamine Oxidase-A [6] | IC50 [1] | Ki [6] | Reversibility of binding with MAO-A [7]
4 | 87.5 ± 3.54 µM | 100.0 | 0.875 ± 0.035 µM | 80% | > 60% | reversible; also recorded: reversibly | did not show time-dependent inhibition | 0.874 ± 0.069 µM | reversible and competitive |  |  | COc1cc(-c2cc(=O)c3c(O)cc(O)cc3o2)c(OC)c(OC)c1OC [Compound 6, 5,7-dihydroxy-2,3,4,5-tetramethoxyflavone] |  |  |  |  | 
5 | 5.17 ± 1.11 µM | 6.451 | 0.8 ± 0.18 µM | 80% | > 60% | reversible; also recorded: reversibly | did not show time-dependent inhibition | 0.809 ± 0.093 µM | reversible and competitive |  | 275 to 277 °C | COc1cc2oc(-c3ccc(O)cc3)cc(=O)c2c(O)c1C [Compound 4, 8-demethylsideroxylin] |  |  |  |  | 
6 | 0.407 ± 0.075 µM |  | 5.93 ± 0.833 µM |  |  |  |  |  |  | 0.339 ± 0.219 µM |  | COc1cc(O)c(C(=O)/C=C/c2ccccc2)c(OC)c1 [Compound 2, 2′-hydroxy-4′,6′-dimethoxy-chalcone] |  | Competitive/Reversible |  |  | 
